{
  "source": "patent US20120202885A1",
  "about": "“METHODS, ASSAYS AND COMPOSITIONS FOR TREATING RETINOL-RELATED DISEASES” (ReVision Therapeutics, Inc., priority 2004, published 2012)",
  "key": {"[1]": {"tested_on": "ABCA4 null mutant mice", "test": "HPR given i.p. to ABCA4 null mutant mice for 28 days: serum retinol, ocular retinoids and A2E", "assay_type": "in vivo", "description": "In order to explore the role of HPR in the visual cycle, the in vivo effects of HPR in mice have been examined. Thus, HPR was administered to ABCA4 null mutant mice (5-20 mg/kg, i.p. in DMSO) for periods of 28 days. Control mice received only the DMSO vehicle. At the end of the treatment period, the concentrations of retinol and HPR in serum and retinoid content in ocular tissues was measured. […] Thus, the calculated percent reduction for each of the measured retinoids, and A2E, was nearly identical (see FIG. 2).\nGenetic crosses of RBP4^−/− mice with ABCA4^−/− mice was undertaken to examine the role of RBP in mediation of retinol levels in serum and ocular tissue."}, "[2]": {"tested_on": "wild type mice", "test": "HPR given to wild type mice for 5 days, then illumination: serum and ocular retinoids", "assay_type": "in vivo", "details": "20 mg/kg", "description": "In order to ensure that the observed effects of HPR in ABCA4 null mice were not due to the genetic mutation, HPR (20 mg/kg, i.p. in DMSO) was administered to wild type mice for 5 days. Control mice received only the DMSO vehicle. On the final day of HPR treatment, the mice were exposed to constant illumination (1000 lux for 10 min) in order “stimulate” the visual cycle to generate visual chromophore. Immediately following the illumination period, the animals were sacrificed and the concentrations of retinoids in serum and ocular tissue were determined. […] As in the previous study, HPR caused a significant reduction in serum retinol (˜55%), ocular retinol (˜40%) and ocular retinal (˜30%). Although HPR did accumulate within ocular tissues during the treatment period (˜5 μM), no effect on LRAT or Rpe65/isomerase activities was observed."}, "[3]": {"test": "14-day HPR dose response on serum retinol (LC/MS of serum extract)", "assay_type": "in vivo, mice", "details": "abca4 null mutant, mouse, serum, intraperitoneal; 20 mg/kg HPR; read-out: steady state concentration of HPR in serum", "description": "(§1) Initial studies began by examining the effect of HPR on serum retinol. Animals were divided into three groups and given either DMSO, 10 mg/kg HPR, or 20 mg/kg HPR for 14 days. At the end of the study period, blood was collected from the animals, sera were prepared and an acetonitrile extract of the serum was analyzed by reverse phase LC/MS. UV-visible spectral and mass/charge analyses were performed to confirm the identity of the eluted peaks. Sample chromatograms obtained from these analyses are shown: FIG. 7a.—extract from an abca4 null mutant mouse receiving HPR vehicle, DMSO; FIG. 7b.—10 mg/kg HPR; FIG. 7c.—20 mg/kg HPR. […] For 20 mg/kg HPR, serum retinol is decreased 72%, see FIG. 8. The steady state concentrations of retinol and HPR in serum (at 20 mg/kg HPR) were determined to be 2.11 μM and 1.75 μM, respectively."}, "[4]": {"tested_on": "abca4 null mutant mouse", "test": "14-day HPR dose response on serum retinol (LC/MS of serum extract)", "assay_type": "in vivo, mice", "details": "DMSO, 10 or 20 mg/kg HPR, 14 days", "description": "as §1"}, "[5]": {"target": "T1, Retinol Binding Protein (RBP) (Homo sapiens, UniProt P02753)", "test": "Competition binding assay of HPR against RBP-retinol by fluorescence quenching", "details": "physiological temperature; HPR 2 μM (FIG. 9b)", "source_text": "Based upon these findings, we sought to further explore the mechanism(s) of retinol reduction during HPR treatment. A tenable hypothesis is that HPR may displace retinol by competing at the retinol binding site on RBP. […] Therefore, one can measure displacement of retinol from the RBP holoprotein by observing decreases in both protein (340 nm) and retinol (470 nm) fluorescence. We performed a competition binding assay using RBP-retinol/HPR concentrations which were similar to those determined from the 14 day trial at 20 mg/kg HPR described above. […] In the control assays, decreases in retinol fluorescence were associated with concomitant increases in protein fluorescence, see FIG. 9a. This effect was determined to be due to temperature effects as the dissociation constant of RBP-retinol increases (decreased affinity) with increased time at 37 C."}, "[6]": {"target": "T1, Retinol Binding Protein (RBP)", "test": "Fluorescence quenching study of MPR binding to retinol binding protein", "details": "1 μM ligand, 0.5 μM Apo-RBP", "description": "Apo-RBP at 0.5 μM was incubated with 0, 0.25, 0.5, 1 and 2 μM of MPR in PBS at room temperature for 1 hour, respectively. As controls, the same concentration of Apo-RBP was also incubated with 1 μM of HPR or 1 μM of atROL. All mixtures contained 0.2% Ethanol (v/v). The emission spectra were measured between 290 nm to 550 nm with excitation wavelength at 280 nm and 3 nm bandpass."}, "[7]": {"tested_on": "ABCA4−/− mice", "test": "Drug holiday after 28 days of HPR: A2E and precursors in eyecup extracts (HPLC)", "assay_type": "in vivo", "details": "for A2E and precursor (A2PE-H2 and A2PE) levels: 10 mg/kg 28 days", "description": "HPR (10 mg/kg in DMSO) was administered to ABCA4−/− mice daily for a period of 28 days. Control ABCA4−/− mice received only DMSO for the same period. […] Importantly, the observed reductions in lipofuscin autofluorescence persist long after cessation of HPR therapy. HPR (10 mg/kg), or DMSO, administration was discontinued following 28 days of treatment and re-evaluated A2E and precursor levels after 2 weeks and after 4 weeks.\nWe examined eyecup extracts by HPLC and employed detection by absorbance and fluorimetry. Identity of the indicated peaks was confirmed by on-line spectral analysis and by co-elution with authentic standards. […] Further, the A2E and precursor (A2PE-H2 and A2PE) levels after a […] or 28-day drug holiday remained at or near the levels immediately following 28 days of treatment (i.e., ca. 50% reduction relative to control), although after the 28-day drug holiday, the amount of A2E and precursor (A2PE-H2 and A2PE) had increased by a few percentage points relative to the 12-day drug holiday levels. […] It is clear that peak fluorescence tracks with the abundance of A2E, A2PE and A2PE-H2."}, "[8]": {"details": "cited from earlier work"}, "[9]": {"details": "5-20 mg/kg, i.p. in DMSO, 28 days"}},
  "data": [
    {"smiles": "CC1=C(/C=C/C(C)=C/C=C/C(C)=C/C(=O)Nc2ccc(O)cc2)C(C)(C)CCC1", "note": "[HPR, N-(4-hydroxyphenyl)retinamide]", "values": [
      {"measurement": "ocular retinoids and A2E", "setting": "[1]; [9]", "value": "commensurate reductions in ocular retinoids and A2E"},
      {"measurement": "serum retinol as a function of increasing serum HPR", "setting": "[1]; [9]", "value": "Profound reductions in serum retinol"},
      {"measurement": "reduction in serum RBP-retinol", "setting": "[1]; administered dose 10 mg/kg", "value": "50-60%"},
      {"measurement": "inhibition of LRAT activity", "setting": "[1]; mice receiving acute and chronic doses", "value": "has not been observed"},
      {"measurement": "reduction in ocular retinal", "setting": "[2]; i.p. in DMSO, wild type mice", "value": "~30", "unit": "%"},
      {"measurement": "reduction in ocular retinol", "setting": "[2]; i.p. in DMSO, wild type mice", "value": "~40", "unit": "%"},
      {"measurement": "reduction in serum retinol", "setting": "[2]; i.p. in DMSO, wild type mice", "value": "~55", "unit": "%"},
      {"measurement": "inhibition in synthesis of retinyl esters or visual chromophore", "setting": "[2]; i.p., 1000 lux for 10 min", "value": "no significant inhibition"},
      {"measurement": "effect on LRAT or Rpe65/isomerase activities", "setting": "[2]; i.p., wild type mice", "value": "no effect"},
      {"measurement": "concentration at 14 days", "setting": "[3]", "value": 1750, "unit": "nM"},
      {"measurement": "serum retinol, dose dependence", "setting": "[4]", "value": "dose-dependent reduction in serum retinol"},
      {"measurement": "displacement of retinol from the RBP-retinol holoprotein", "setting": "[5]", "value": "efficiently displaces retinol"},
      {"measurement": "binding to RBP", "setting": "[6]", "value": "bind to RBP"},
      {"measurement": "A2E and precursor (A2PE-H2 and A2PE) levels", "setting": "[7]; then 12-day drug holiday", "value": "remain significantly reduced relative to control mice"},
      {"measurement": "A2E and precursor (A2PE-H2 and A2PE) levels", "setting": "[7]; then 28-day drug holiday", "value": "remain significantly reduced relative to control mice"},
      {"measurement": "detection of HPR or HPR metabolites in the eyes", "setting": "[7]; 28-day drug holiday", "value": "unable to detect"},
      {"measurement": "reduction of A2E and precursors relative to control", "setting": "[7]; immediately following 28 days of treatment, level held after 12- or 28-day drug holiday", "value": "ca. 50%"},
      {"measurement": "serum retinol and RBP", "setting": "[8]; Formelli et al., Torrisi et al.", "value": "reductions in serum retinol and RBP"},
      {"measurement": "reduction in circulating RBP and retinol", "setting": "[8]; several investigators, Berni et al. 1993", "value": "established in vivo"}
    ]}
  ]
}
